Here are results for three compounds from patent EP3590935A1, “FUSED IMIDAZOLIUM DERIVATIVES FOR USE IN THE TREATMENT OF COLORECTAL CANCER” (Deutsches Krebsforschungszentrum, Stiftung des öffentlichen …, priority 2018, dated 2020).

“Also recorded” adds a separate entry of the source.

Series [1] relates to CMS1 cell lines RKO and HCT116 and the CMS2 cell lines HT55 and CaCo2. As to the kind of experiment: Apoptosis by flow cytometry (APC Annexin V and 7-AAD). It is filed as cell-based. The following applies: increasing concentrations; CMS1 (RKO, HCT116) versus CMS2 (HT55, CaCo2). The text has this:
(§1) The present invention will now be further described in the following examples with reference to the accompanying figures and sequences, nevertheless, without being limited thereto. For the purposes of the present invention, all references as cited herein are incorporated by reference in their entireties. In the Figures: • Figure 1: Classification of colorectal cancer cell lines into consensus molecular subtypes (CMS). • (A) Workflow of data collection and subtype classification. Expression data of CRC cell lines were retrieved from six publicly available datasets. For each dataset, the CMS of every cancer cell line was separately identified using the R package 'CMSclassifier'. The CMS that was determined by the majority of datasets was then considered as the consensus. […] Heatmap showing the viability effect of YM155 on individual CMS1 and CMS2 cell lines within the screen (blue indicates a low viability as measured by the AUC). • (C-D) Validation of YM155 as a selective drug in CMS1 colorectal cancer. […] Induction of apoptosis was measured by FACS after staining with APC Annexin V and 7-AAD. […] Cell lysates were additionally analyzed by PARP and CASP8 immunoblot. β-actin serves as a loading control. […] The CMS1 cells lines RKO and HCT116 were treated with different concentrations of YM155 for 48 h and the expression of survivin was measured by qPCR. […]
On the technique in general: A flow cytometer gives signals particle by particle.

In series [2] the test system is CMS1 cell lines HCT116 and RKO. The series can be described thus: Long-term proliferation assay. It is filed as cell-based. The following applies: CMS1 (HCT116, RKO) versus CMS2.
The subject of a further series is PARP and CASP3. As to the kind of experiment: Immunoblot of PARP and caspase cleavage. The class given is cell-based. The following applies: cell lysates; CMS1 versus CMS2 cell lines. (In general: A western blot detects proteins with antibodies after separation by electrophoresis.)
Series [3] has as its system HCT116, RKO, HT55 and CaCo2 cells. As to the kind of experiment: Global expression analysis by microarray after treatment. It is filed as cell-based. The note with it: 10 nM, 24 h; CMS1 versus CMS2 cell lines.
From the text: as §1

The test system of the next series is HCT116 and HT55. As to the kind of experiment: Single knockout validation (SLC35F2, CCDC22, WASHC4, SNX17): drug-induced apoptosis by FACS. It is filed as cell-based.
From the text: as §1

Series [4] relates to CMS1 and CMS2 CRC cell lines. As to the kind of experiment: Analysis of public drug screen data (Iorio et al.): viability effect (AUC) in CMS-classified CRC cell lines. It is filed as cell-based. The note with it: 8 CMS1 and 16 CMS2 CRC cell lines, 256 drugs, 2016. From the text:
The present invention will now be further described in the following examples with reference to the accompanying figures and sequences, nevertheless, without being limited thereto. For the purposes of the present invention, all references as cited herein are incorporated by reference in their entireties. In the Figures: • Figure 1: Classification of colorectal cancer cell lines into consensus molecular subtypes (CMS). • (A) Workflow of data collection and subtype classification. Expression data of CRC cell lines were retrieved from six publicly available datasets. For each dataset, the CMS of every cancer cell line was separately identified using the R package 'CMSclassifier'. The CMS that was determined by the majority of datasets was then considered as the consensus. […] Induction of apoptosis was measured by FACS after staining with APC Annexin V and 7-AAD. […] Cell lysates were additionally analyzed by PARP and CASP8 immunoblot. β-actin serves as a loading control. […] The CMS1 cells lines RKO and HCT116 were treated with different concentrations of YM155 for 48 h and the expression of survivin was measured by qPCR. […] (E) HCT116, RKO, HT55 and CaCo2 cells were treated with 10 nM of YM155 for 24 h, after which global expression was determined by microarray analysis. […]

For series [5], the system named is CMS1 (HCT116, RKO, LoVo, SNU-C2A, LIM2405, WiDr) and CMS2 (CaCo2, HT55, CL14, SW403, GP2d, HCA24) cell lines. As to the kind of experiment: Drug response curves (viability, AUC) in a panel of CMS1 and CMS2 cell lines. It is filed as cell-based. The note with it: 72 h; 6 CMS1 and 6 CMS2 cell lines. The text has this:
The present invention will now be further described in the following examples with reference to the accompanying figures and sequences, nevertheless, without being limited thereto. For the purposes of the present invention, all references as cited herein are incorporated by reference in their entireties. In the Figures: • Figure 1: Classification of colorectal cancer cell lines into consensus molecular subtypes (CMS). • (A) Workflow of data collection and subtype classification. Expression data of CRC cell lines were retrieved from six publicly available datasets. For each dataset, the CMS of every cancer cell line was separately identified using the R package 'CMSclassifier'. The CMS that was determined by the majority of datasets was then considered as the consensus. Finally, genomic data from CCLE and COSMIC were used to analyse CMS specific distributions of mutations and copy number alterations. • (B) Distribution of CRC cell lines to different CMS. […] Drug response data from a large screen performed by Iorio et al. was combined with the CMS classification of CRC cell lines to identify differential drug effects between CMS1 and CMS2 cell lines. […] Cell lines were treated with increasing drug concentrations for 72 h. […] The CMS1 cell lines RKO and HCT116 and the CMS2 cell lines HT55 and CaCo2 were treated with increasing concentrations of YM155. Induction of apoptosis was measured by FACS after staining with APC Annexin V and 7-AAD. […] Data are shown as mean value ± s.e.m. of 3-4 independent replicates. Cell lysates were additionally analyzed by PARP and CASP8 immunoblot. β-actin serves as a loading control. […] CMS1 and 2 cell lines were treated with increasing concentrations of the Bcl2 inhibitor navitoclax for 72 h. […] The CMS1 cells lines RKO and HCT116 were treated with different concentrations of YM155 for 48 h and the expression of survivin was measured by qPCR. […] (E) HCT116, RKO, HT55 and CaCo2 cells were treated with 10 nM of YM155 for 24 h, after which global expression was determined by microarray analysis. […]

Another series relates to solid tumours. The note with it: phase I and II trials, solid non-CRC tumours; cited from earlier work.
The test system of a further series is survivin. As to the kind of experiment: Survivin transcript (qPCR) and protein levels after treatment. The class given is cell-based. The following applies: four CRC cell lines.
From the text: as §1
In general terms: In qPCR the cycle at which signal appears reflects the starting amount.

For `COCCn1c2c([n+](Cc3cnccn3)c1C)C(=O)c1ccccc1C2=O` [YM155, 11-(2-methoxyethyl)-2-methyl-4,9-dioxo-3-(pyrazin-2-ylmethyl)-4,9-dihydro-1H-naphtho(2,3-d)imidazolium bromide], the “induction of apoptosis (percentage of apoptotic cells)” value in series [1] is on record as “Apoptosis can be measured at lower concentrations in CMS1 cell lines; also recorded: apoptosis was induced in CMS1 cell lines at significantly lower concentrations”. The “higher sensitivity of CMS1 cell lines” value in series [2] is “approximately 100 fold”. The “cleavage of PARP and CASP3” value in the series on PARP and CASP3 is “detected at low concentrations in CMS1 but not CMS2 cell lines; also recorded: occurred at lower concentrations in RKO compared to CaCo2”. For the same compound, the global expression result in [3] was “global expression was dynamically reshaped upon treatment in CMS1 cell lines”. The “effect of candidate gene knockout on drug-induced apoptosis” value in the series with HCT116 and HT55 (HCT116 (CMS1)) is listed as “All candidate genes lead to resistance to YM155 induced apoptosis at different concentrations in HCT116; also recorded: resistance against YM155 induced apoptosis in HCT116”. In addition, the “effect of candidate gene knockout on drug sensitivity” value in the series on HCT116 and HT55 (HT55 (CMS2)) is “only SLC35F2 knockout mediates resistance in HT55; also recorded: did not change YM155 sensitivity in HT55”. Moreover, in [4], the “differential effect between CMS1 and 2 (viability effect, AUC)” value was “selective effect on CMS1 cancer; also recorded: strongest differential effect between CMS1 and 2”. In addition, in series [5], the “sensitivity of CMS1 versus CMS2 cell lines (dose response curves, comparison of AUCs)” value was “significantly higher vulnerability of CMS1 colorectal cancer; also recorded: significantly more sensitive”. For the same compound, in the series on solid tumours, the “clinical benefit / efficacy” value is “efficacy results are mixed; also recorded: failed to show clinical benefit; also recorded: no clinical benefit was observed”; the “tolerability / toxicity profile” value was “safe and good tolerability and favourable toxicity profile”. Besides, the “protein levels of survivin” value in the series with survivin is recorded as “protein levels of survivin are only reduced at high concentrations”. For the same compound, in the series with survivin (qPCR, 48 h), the “expression of survivin (transcript)” value is listed as “expression of survivin is only repressed in RKO cells”.
Consider `O=c1[nH]cc(F)c(=O)[nH]1` [5-fluorouracil], for which the “sensitivity of CMS1 versus CMS2 cell lines (dose response curves, comparison of AUCs)” value in series [5] was “do not show a different viability effect in CMS1 and CMS2 colorectal cancer; also recorded: no difference in response rates could be detected between CMS1 and CMS2”.
For `CC1(C)CCC(c2ccc(Cl)cc2)=C(CN2CCN(c3ccc(C(=O)NS(=O)(=O)c4ccc(N[C@H](CCN5CCOCC5)CSc5ccccc5)c(S(=O)(=O)C(F)(F)F)c4)cc3)CC2)C1` [navitoclax], the “sensitivity of CMS1 versus CMS2 cell lines (dose response curves, comparison of AUCs)” value in series [5] is “does not show a significant difference between CMS1 and CMS2; also recorded: no difference in navitoclax sensitivity between CMS1 and CMS2 cell lines”.
